What was measured:
nutsedge, purple = assay: Test E preemergence; type: in vivo, Cyperus rotundus; settings: 21 days, scale 0 to 100
Excerpt: (§1) Seeds of plant species selected from bermudagrass (Cynodon dactylon), Surinam grass (Brachiaria decumbens), crabgrass, large (large crabgrass, Digitaria sanguinalis), crabgrass, naked (naked crabgrass, Digitaria nuda), foxtail, green (green foxtail, Setaria viridis), johnsongrass (Sorghum halepense), kochia (Kochia scoparia), morningglory (pitted morningglory, Ipomoea lacunosa), nutsedge, purple (purple nutsedge, Cyperus rotundus), ragweed (common ragweed, Ambrosia elation), mustard, black (black mustard, Brassica nigra), guineagrass (Panicum maximum), dallisgrass (Paspalum dilatatum), barnyardgrass (Echinochloa crus-galli), sandbur (southern sandbur, Cenchrus echinatus), sowthistle (common sowthistle, Sonchus oleraceous), ryegrass, Italian (Italian ryegrass, Lolium multiflorum), signalgrass (broadleaf signalgrass, Brachiaria platyphylla), dayflower, VA (Virginia (VA) dayflower, Commelina virginica), bluegrass (annual bluegrass, Poa annua), quackgrass (Elytrigia repens), mallow (common mallow, Malva sylvestris), buckwheat, wild (wild buckwheat, Polygonum convolvulus), leafy spurge (Euphorbia esula), common chickweed (Stellaria media), wild poinsettia (Euphorbia heterophylla), pigweed, palmer (palmer pigweed, Amaranthus palmeri), and pigweed (redroot pigweed, Amaranthus retroflexus) were planted into a blend of loam soil and sand and treated preemergence with test chemicals formulated in a non-phytotoxic solvent mixture which included a surfactant.
(§2) Treated plants and controls were maintained in a greenhouse for 21 days, after which time all species were compared to controls and visually evaluated. Plant response ratings, summarized in Table E, are based on a scale of 0 to 100 where 0 is no effect and 100 is complete control. A dash (-) response means no test result.

kochia [1] = assay: Test F postemergence; type: in vivo, Kochia scoparia; settings: scale 0 to 100
Excerpt: (§3) Seeds of plant species selected from corn (Zea mays), soybean (Glycine max), velvetleaf (Abutilon theophrasti), lambsquarters (Chenopodium album), wild poinsettia (Euphorbia heterophylla), pigweed, palmer (palmer pigweed, Amaranthus palmeri), common waterhemp (Amaranthus rudis), surinam grass (Brachiaria decumbens), large crabgrass (Digitaria sanguinalis), crabgrass, Brazil (Brazilian crabgrass, Digitaria horizontalis), fall panicum (Panicum dichotomiflorum), giant foxtail (Setaria faberii), green foxtail (Setaria viridis), goosegrass (Eleusine indica), johnsongrass (Sorghum halepense), common ragweed (Ambrosia elation), barnyardgrass (Echinochloa crus-galli), southern sandbur (Cenchrus echinatus), arrowleaf sida (Sida rhombifolia), Italian ryegrass (Lolium multiflorum), dayflower, VA (Virginia (VA) dayflower, Commelina virginica), field bindweed (Convolvulus arvensis), cocklebur (common cocklebur, Xanthium strumarium), morningglory (Ipomoea coccinea), nightshade (eastern black nightshade, Solanum ptycanthum), kochia (Kochia scoparia), yellow nutsedge (Cyperus esculentus), and hairy beggarticks (Bidens pilosa), were planted into a silt loam soil and treated preemergence with test chemicals formulated in a non-phytotoxic solvent mixture which included a surfactant.
(§4) At the same time, plants from these crop and weed species and also horseweed (Canada horseweed, Conyza canadensis), smartweed (ladysthumb smartweed, Polygonum persicaria), waterhemp_RES1, (ALS & Triazine resistant common waterhemp, Amaranthus rudis), and waterhemp_RES2, (ALS & HPPD resistant common waterhemp, Amaranthus rudis) were treated with postemergence applications of test chemicals formulated in the same manner. Plants ranged in height from 2 to 18 cm for postemergence treatments (1- to 4-leaf stage). Treated plants and controls were maintained in a greenhouse for 14 to 21 days, after which time all species were compared to controls and visually evaluated. Plant response ratings, summarized in Table F, are based on a scale of 0 to 100 where 0 is no effect and 100 is complete control. A dash (-) response means no test result.

leafy spurge = assay: Test E preemergence; type: in vivo, Euphorbia esula; settings: 21 days, scale 0 to 100
Excerpt: as §1, §2

kochia [2] = assay: Test E preemergence; type: in vivo, Kochia scoparia; settings: 21 days, scale 0 to 100
Excerpt: as §1, §2

hairy beggarticks = assay: Test F postemergence; type: in vivo, Bidens pilosa; settings: scale 0 to 100
Excerpt: as §3, §4

[3] = tested on: waterhemp_RES2 (ALS & HPPD resistant common waterhemp); assay: Test F postemergence; type: in vivo, Amaranthus rudis; settings: scale 0 to 100
Excerpt: as §3, §4

Compound | Plant response rating, Nutsedge, Purple (nutsedge, purple; 16 g ai/ha) | Plant response rating, Nutsedge, Purple (nutsedge, purple; 31 g ai/ha) | Plant response rating, Nutsedge, Purple (nutsedge, purple; 62 g ai/ha) | Plant response rating, Nutsedge, Purple (nutsedge, purple; 125 g ai/ha) | Plant response rating, Nutsedge, Purple (nutsedge, purple; 250 g ai/ha) | Plant response rating, Kochia (kochia [1]; Postemergence, 31 g ai/ha) | Plant response rating, Kochia (kochia [1]; Postemergence, 125 g ai/ha) | Plant response rating, Kochia (kochia [1]; Postemergence, 250 g ai/ha) | Plant response rating, Kochia (kochia [1]; postemergence, 62 g ai/ha) | Plant response rating, Kochia (kochia [1]; postemergence, 500 g ai/ha) | Plant response rating, Leafy Spurge (leafy spurge; 16 g ai/ha) | Plant response rating, Leafy Spurge (leafy spurge; 31 g ai/ha) | Plant response rating, Leafy Spurge (leafy spurge; 62 g ai/ha) | Plant response rating, Leafy Spurge (leafy spurge; 125 g ai/ha) | Plant response rating, Leafy Spurge (leafy spurge; 250 g ai/ha) | Plant response rating, Kochia (kochia [2]; 16 g ai/ha) | Plant response rating, Kochia (kochia [2]; 31 g ai/ha) | Plant response rating, Kochia (kochia [2]; 62 g ai/ha) | Plant response rating, Kochia (kochia [2]; 125 g ai/ha) | Plant response rating, Kochia (kochia [2]; 250 g ai/ha) | further results
CCc1cc(C(=O)NCC(F)(F)F)nn1Cc1ccnc(C(F)(F)F)c1 [Compound 78, 5-ethyl-N-(2,2,2-trifluoroethyl)-1-[[(2-trifluoromethyl)-4-pyridinyl]methyl]-1H-pyrazole-3-carboxamide] | 35 | 75 | 98 | 100 | 100 | 65 | 90 | 90 | 90 | 95 | 80 | 100 | 100 | 100 | 100 | 100 | 100 | 100 | 100 | 100 | Plant response rating, Hairy Beggarticks (hairy beggarticks; Postemergence, 31 g ai/ha): 30; Plant response rating, Hairy Beggarticks (hairy beggarticks; Postemergence, 125 g ai/ha): 50; Plant response rating, Hairy Beggarticks (hairy beggarticks; Postemergence, 250 g ai/ha): 75; Plant response rating, Hairy Beggarticks (hairy beggarticks; postemergence, 62 g ai/ha): 40; Plant response rating, Hairy Beggarticks (hairy beggarticks; postemergence, 500 g ai/ha): 90; Plant response rating, Waterhemp_RES2 ([3]; Postemergence, 31 g ai/ha): 60; Plant response rating, Waterhemp_RES2 ([3]; Postemergence, 125 g ai/ha): 70; Plant response rating, Waterhemp_RES2 ([3]; Postemergence, 250 g ai/ha): 75; Plant response rating, Waterhemp_RES2 ([3]; postemergence, 62 g ai/ha): 65; Plant response rating, Waterhemp_RES2 ([3]; postemergence, 500 g ai/ha): 95
CCc1cc(C(=O)NC(C)C)nn1Cc1ccnc(C(F)(F)F)c1 [Compound 103] | 15 | 75 | 90 | 98 | 100 | – | – | – | – | – | 75 | 95 | 100 | 100 | 100 | 95 | 100 | 100 | 100 | 100 | –
CCOc1cc(C(=O)NCC(F)(F)F)nn1Cc1ccnc(C(F)(F)F)c1 [Compound 104] | 35 | 80 | 90 | 98 | 100 | 75 | 90 | 95 | 80 | 95 | 100 | 98 | 100 | 98 | 100 | 100 | 100 | 100 | 100 | 100 | Plant response rating, Hairy Beggarticks (hairy beggarticks; Postemergence, 31 g ai/ha): 50; Plant response rating, Hairy Beggarticks (hairy beggarticks; Postemergence, 125 g ai/ha): 60; Plant response rating, Hairy Beggarticks (hairy beggarticks; Postemergence, 250 g ai/ha): 85; Plant response rating, Hairy Beggarticks (hairy beggarticks; postemergence, 62 g ai/ha): 50; Plant response rating, Hairy Beggarticks (hairy beggarticks; postemergence, 500 g ai/ha): 90; Plant response rating, Waterhemp_RES2 ([3]; Postemergence, 31 g ai/ha): 80; Plant response rating, Waterhemp_RES2 ([3]; Postemergence, 125 g ai/ha): 95; Plant response rating, Waterhemp_RES2 ([3]; Postemergence, 250 g ai/ha): 80; Plant response rating, Waterhemp_RES2 ([3]; postemergence, 62 g ai/ha): 80; Plant response rating, Waterhemp_RES2 ([3]; postemergence, 500 g ai/ha): 85
CCOc1cc(C(=O)NC(C)C)nn1Cc1ccnc(C(F)(F)F)c1 [Compound 188] | – | – | – | – | – | 40 | 95 | 90 | 60 | 95 | – | – | – | – | – | – | – | – | – | – | Plant response rating, Hairy Beggarticks (hairy beggarticks; Postemergence, 31 g ai/ha): 50; Plant response rating, Hairy Beggarticks (hairy beggarticks; Postemergence, 125 g ai/ha): 50; Plant response rating, Hairy Beggarticks (hairy beggarticks; Postemergence, 250 g ai/ha): 60; Plant response rating, Hairy Beggarticks (hairy beggarticks; postemergence, 62 g ai/ha): 60; Plant response rating, Hairy Beggarticks (hairy beggarticks; postemergence, 500 g ai/ha): 75; Plant response rating, Waterhemp_RES2 ([3]; Postemergence, 31 g ai/ha): 65; Plant response rating, Waterhemp_RES2 ([3]; Postemergence, 125 g ai/ha): 50; Plant response rating, Waterhemp_RES2 ([3]; Postemergence, 250 g ai/ha): 50; Plant response rating, Waterhemp_RES2 ([3]; postemergence, 62 g ai/ha): 70; Plant response rating, Waterhemp_RES2 ([3]; postemergence, 500 g ai/ha): 60
CCOc1cc(C(=O)NC2CC2)nn1Cc1ccnc(C(F)(F)F)c1 [Compound 189] | 50 | 50 | 85 | – | – | – | – | – | – | – | 100 | 100 | 100 | – | – | 100 | 100 | 100 | – | – | Plant response rating, Nutsedge, Purple (nutsedge, purple; 4 g ai/ha): 0; Plant response rating, Nutsedge, Purple (nutsedge, purple; 8 g ai/ha): 10; Plant response rating, Leafy Spurge (leafy spurge; 4 g ai/ha): 35; Plant response rating, Leafy Spurge (leafy spurge; 8 g ai/ha): 75; Plant response rating, Kochia (kochia [2]; 4 g ai/ha): 98; Plant response rating, Kochia (kochia [2]; 8 g ai/ha): 100

Source: patent publication US20150105252A1, “SUBSTITUTED PYRAZOLES AS HERBICIDES” (E I DU PONT DE NEMOURS AND COMPANY, priority 2013, published 2015)
